Several values for one entry are separate records, joined by “and”; a condition that tells them apart may be missing. Equal values may be shown once.
Columns and labels:
[1] = tested on: Del19/T790M/C797S EGFR; test: EGFR degradation HTRF assay in H1975-clone #28 (DTC) cells; type: cell-based; conditions: H1975 # 28 DTC (Del19/T790M/C797S), 16h treatment; for DC50: HTRF; for Dmax (%): maximum percentage of degradation
Outline: (§1)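 Engineered H1975 lines (exogenous mutant EGFR, endogenous copies knocked out, single clones sequence-verified); 16 h compound, 37 °C/5% CO2, 0.2% DMSO; top 10 uM, 5-fold, 8 pts; lysis 1 h RT, HTRF antibodies overnight RT; 4-parameter logistic fit → DC50.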

[2] = target: T1, L858R/T790M/C797S EGFR (Homo sapiens, UniProt P00533, C797S/L858R/T790M); test: EGFR degradation HTRF assay in H1975-clone #25 (LTC) cells; type: cell-based; conditions: 16h treatment; for DC50: HTRF; for Dmax: NCI-H1975, H1975 # 25-LTC (L858R/T790M/C797S)
T1 construct: expressed in transfected cells; host or cells: H1975 clone #25 (lentiviral over-expression, endogenous EGFR knocked out by sgRNA)
Outline: as §1

[3] = H1975 # 25-LTC (L858R/T790M/C797S)
[4] = maximum percentage of degradation

T1 sequence (P00533 25-1210 T790M/C797S/L858R): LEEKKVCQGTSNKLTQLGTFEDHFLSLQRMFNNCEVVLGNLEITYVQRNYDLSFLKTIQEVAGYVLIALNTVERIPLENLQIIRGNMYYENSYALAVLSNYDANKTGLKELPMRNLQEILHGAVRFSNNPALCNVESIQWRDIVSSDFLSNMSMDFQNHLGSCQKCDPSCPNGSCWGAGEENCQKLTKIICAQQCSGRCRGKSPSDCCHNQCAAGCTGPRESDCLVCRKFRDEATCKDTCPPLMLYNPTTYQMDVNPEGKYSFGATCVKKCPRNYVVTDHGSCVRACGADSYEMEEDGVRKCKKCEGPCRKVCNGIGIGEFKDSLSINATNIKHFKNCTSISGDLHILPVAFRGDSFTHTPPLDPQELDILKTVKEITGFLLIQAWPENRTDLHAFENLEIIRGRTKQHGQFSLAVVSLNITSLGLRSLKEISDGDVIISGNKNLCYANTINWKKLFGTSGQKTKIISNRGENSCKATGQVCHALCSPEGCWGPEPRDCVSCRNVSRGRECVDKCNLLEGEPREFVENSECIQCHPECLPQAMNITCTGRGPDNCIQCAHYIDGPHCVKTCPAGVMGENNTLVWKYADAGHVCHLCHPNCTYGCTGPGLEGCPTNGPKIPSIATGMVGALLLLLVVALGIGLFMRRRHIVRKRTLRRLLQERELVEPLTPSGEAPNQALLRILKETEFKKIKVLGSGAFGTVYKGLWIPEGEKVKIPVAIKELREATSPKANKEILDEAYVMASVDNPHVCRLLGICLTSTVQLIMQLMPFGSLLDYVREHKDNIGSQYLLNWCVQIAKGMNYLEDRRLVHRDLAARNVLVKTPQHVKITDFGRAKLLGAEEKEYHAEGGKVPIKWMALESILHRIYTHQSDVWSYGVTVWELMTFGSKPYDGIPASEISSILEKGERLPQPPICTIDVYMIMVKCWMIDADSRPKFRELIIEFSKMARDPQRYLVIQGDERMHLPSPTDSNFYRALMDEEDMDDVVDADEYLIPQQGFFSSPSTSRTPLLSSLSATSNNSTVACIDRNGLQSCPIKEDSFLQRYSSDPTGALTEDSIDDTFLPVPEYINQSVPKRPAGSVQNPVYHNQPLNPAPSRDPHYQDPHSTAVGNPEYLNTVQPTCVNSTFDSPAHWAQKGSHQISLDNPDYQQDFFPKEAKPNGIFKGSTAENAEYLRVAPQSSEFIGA

Row | Structure (SMILES) | DC50 [1] | DC50 [2, 3] | Dmax [2, 4] [%] | Dmax (%) ([2]; H1975 # 25-LTC (L858R/T790M/C797S), maximum percentage of degradation) | Dmax (%) [1]
1 | Cc1cc2cc(n1)-c1cnn(C)c1OCCC[C@@H](C)CN1/C(=N/C2=O)Nc2ccc(C(=O)N(C)CCCCc3cc(F)c([C@H]4CCC(=O)NC4=O)c(F)c3)cc21 [Example 339, (R,E)-N-(4-(4-((R)-2,6-dioxopiperidin-3-yl)-3,5-difluorophenyl)butyl)-N,1^1,2^6,7-tetramethyl-3-oxo-5^2,5^3-dihydro-1^1H,5^1H-11-oxa-4-aza-5(2,1)-benzo[d]imidazola-2(2,4)-pyridina-1(4,5)-pyrazolacycloundecaphane-5^6-carboxamide] | 671 pM | 865 pM | 80.3 | – | 70.76%
2 | Cc1cc2cc(n1)-c1cnn(C)c1OCCC[C@@H](C)CN1/C(=N/C2=O)Nc2ccc(C(=O)N3CCN(CCCc4cc(F)c([C@H]5CCC(=O)NC5=O)c(F)c4)CC3)cc21 [Example 341, (R)-3-(2,6-difluoro-4-(3-(4-((R,E)-1^1,2^6,7-trimethyl-3-oxo-5^2,5^3-dihydro-1^1H,5^1H-11-oxa-4-aza-5(2,1)-benzo[d]imidazola-2(2,4)-pyridina-1(4,5)-pyrazolacycloundecaphane-5^6-carbonyl)piperazin-1-yl)propyl)phenyl)piperidine-2,6-dione] | 621 pM | 540 pM | 86.8 | – | 79.84%
3 | Cc1cc2cc(n1)-c1cnn(C)c1OCCC[C@@H](C)CN1/C(=N/C2=O)Nc2ccc(C(=O)N(C)[C@@H]3CCN(CCc4cc(F)c([C@H]5CCC(=O)NC5=O)c(F)c4)C[C@@H]3F)cc21 [Example 344, (R,E)-N—((3S,4R)-1-(4-((R)-2,6-dioxopiperidin-3-yl)-3,5-difluorophenethyl)-3-fluoropiperidin-4-yl)-N,1^1,2^6,7-tetramethyl-3-oxo-5^2,5^3-dihydro-1^1H,5^1H-11-oxa-4-aza-5(2,1)-benzo[d]imidazola-2(2,4)-pyridina-1(4,5)-pyrazolacycloundecaphane-5^6-carboxamide] | 620 pM | 386 pM | 92.8 | – | 83.22%
4 | Cc1cc2cc(n1)-c1cnn(C)c1OCCC[C@@H](C)CN1/C(=N/C2=O)Nc2ccc(C(=O)N[C@@H]3CCN(CCc4cc(F)c([C@H]5CCC(=O)NC5=O)c(F)c4)C[C@H]3F)cc21 [Example 345, (R,E)-N—((3R,4R)-1-(4-((R)-2,6-dioxopiperidin-3-yl)-3,5-difluorophenethyl)-3-fluoropiperidin-4-yl)-1^1,2^6,7-trimethyl-3-oxo-5^2,5^3-dihydro-1^1H,5^1H-11-oxa-4-aza-5(2,1)-benzo[d]imidazola-2(2,4)-pyridina-1(4,5)-pyrazolacycloundecaphane-5^6-carboxamide] | 662 pM and 700 pM | 634 pM and 600 pM | 92.5 | 92.5 | 74.46% and 74.5%
5 | Cc1cc2cc(n1)-c1cnn(C)c1OCCC[C@@H](C)CN1/C(=N/C2=O)Nc2ccc(C(=O)N(C)[C@@H]3CCN(CCNc4cc(F)c([C@H]5CCC(=O)NC5=O)c(F)c4)C[C@@H]3F)cc21 [Example 350, (R,E)-N—((3S,4R)-1-(2-((4-((R)-2,6-dioxopiperidin-3-yl)-3,5-difluorophenyl)amino)ethyl)-3-fluoropiperidin-4-yl)-N,1^1,2^6,7-tetramethyl-3-oxo-5^2,5^3-dihydro-1^1H,5^1H-11-oxa-4-aza-5(2,1)-benzo[d]imidazola-2(2,4)-pyridina-1(4,5)-pyrazolacycloundecaphane-5^6-carboxamide] | 662 pM | 614 pM | 90.4 | – | 86.74%
6 | Cc1cc2cc(n1)-c1cnn(C)c1OCCC[C@@H](C)CN1/C(=N/C2=O)Nc2ccc(C(=O)N(C)[C@H]3CCN(CCNc4cc(F)c([C@H]5CCC(=O)NC5=O)c(F)c4)C[C@@H]3F)cc21 [Example 352, (R,E)-N—((3S,4S)-1-(2-((4-((R)-2,6-dioxopiperidin-3-yl)-3,5-difluorophenyl)amino)ethyl)-3-fluoropiperidin-4-yl)-N,1^1,2^6,7-tetramethyl-3-oxo-5^2,5^3-dihydro-1^1H,5^1H-11-oxa-4-aza-5(2,1)-benzo[d]imidazola-2(2,4)-pyridina-1(4,5)-pyrazolacycloundecaphane-5^6-carboxamide] | 814 pM | 847 pM | 85.6 | – | 79.43%

Second part, led by results:

Row | DC50 [1] | DC50 [2, 3] | Dmax [2, 4] [%] | Dmax (%) ([2]; H1975 # 25-LTC (L858R/T790M/C797S), maximum percentage of degradation) | Structure (SMILES) | Dmax (%) [1]
7 | 304 pM | 386 pM | 88.4 | – | Cc1cc2cc(n1)-c1cnn(C)c1OCCC[C@@H](C)CN1/C(=N/C2=O)Nc2cc(C)c(C(=O)N(C)C3CCN(CCc4cc(F)c([C@H]5CCC(=O)NC5=O)c(F)c4)CC3)cc21 [Example 336, (R,E)-N-(1-(4-((R)-2,6-dioxopiperidin-3-yl)-3,5-difluorophenethyl)piperidin-4-yl)-N,1^1,2^6,5^5,7-penta methyl-3-oxo-5^2,5^3-dihydro-1^1H,5^1H-11-oxa-4-aza-5(2,1)-benzo[d]imidazola-2(2,4)-pyridina-1(4,5)-pyrazolacycloundecaphane-5^6-carboxamide] | 72.28%
8 | 608 pM | 535 pM | 92 | – | Cc1cc2cc(n1)-c1cnn(C)c1OCCC[C@@H](C)CN1/C(=N/C2=O)Nc2ccc(C(=O)N[C@H]3CCN(CCc4cc(F)c([C@H]5CCC(=O)NC5=O)c(F)c4)CC3(F)F)cc21 [Example 337, (R,E)-N—((S)-1-(4-((R)-2,6-dioxopiperidin-3-yl)-3,5-difluorophenethyl)-3,3-difluoropiperidin-4-yl)-1^12^6,7-trimethyl-3-oxo-5^2,5^3-dihydro-1^1H,5^1H-11-oxa-4-aza-5(2,1)-benzo[d]imidazola-2(2,4)-pyridina-1(4,5)-pyrazolacycloundecaphane-5^6-carboxamide] | 79.69%
9 | 607 pM | 620 pM | 90.8 | – | Cc1cc2cc(n1)-c1cnn(C)c1OCCC[C@@H](C)CN1/C(=N/C2=O)Nc2ccc(C(=O)N[C@H]3CCN(CCc4cc(F)c([C@H]5CCC(=O)NC5=O)c(F)c4)C[C@@H]3F)cc21 [Example 342, (R,E)-N—((3S,4S)-1-(4-((R)-2,6-dioxopiperidin-3-yl)-3,5-difluorophenethyl)-3-fluoropiperidin-4-yl)-1^1,2^6,7-trimethyl-3-oxo-5^2,5^3-dihydro-1^1H,5^1H-11-oxa-4-aza-5(2,1)-benzo[d]imidazola-2(2,4)-pyridina-1(4,5)-pyrazolacycloundecaphane-5^6-carboxamide] | 77.52%
10 | 609 pM | 599 pM | 90.5 | – | Cc1cc2cc(n1)-c1cnn(C)c1OCCC[C@@H](C)CN1/C(=N/C2=O)Nc2ccc(C(=O)N[C@H]3CCN(CCc4cc(F)c([C@H]5CCC(=O)NC5=O)c(F)c4)C[C@H]3F)cc21 [Example 343, (R,E)-N—((3R,4S)-1-(4-((R)-2,6-dioxopiperidin-3-yl)-3,5-difluorophenethyl)-3-fluoropiperidin-4-yl)-1^1,2^6,7-trimethyl-3-oxo-5^2,5^3-dihydro-1^1H,5^1H-11-oxa-4-aza-5(2,1)-benzo[d]imidazola-2(2,4)-pyridina-1(4,5)-pyrazolacycloundecaphane-5^6-carboxamide] | 76.11%
11 | 411 pM | 526 pM | 84.8 | – | Cc1cc2cc(n1)-c1cnn(C)c1OCCC[C@@H](C)CN1/C(=N/C2=O)Nc2ccc(C(=O)N(C)[C@@H]3CCN(CCc4cc(F)c([C@H]5CCC(=O)NC5=O)c(F)c4)C[C@H]3F)cc21 [Example 346, (R,E)-N—((3R,4R)-1-(4-((R)-2,6-dioxopiperidin-3-yl)-3,5-difluorophenethyl)-3-fluoropiperidin-4-yl)-N,1^1,2^6,7-tetramethyl-3-oxo-5^2,5^3-dihydro-1^1H,5^1H-11-oxa-4-aza-5(2,1)-benzo[d]imidazola-2(2,4)-pyridina-1(4,5)-pyrazolacycloundecaphane-5^6-carboxamide] | 78.78%
12 | 561 pM | 614 pM | 91.7 | – | Cc1cc2cc(n1)-c1cnn(C)c1OCCC[C@@H](C)CN1/C(=N/C2=O)Nc2ccc(C(=O)N(C)[C@H]3CCN(CCNc4cc(F)c([C@H]5CCC(=O)NC5=O)c(F)c4)C[C@H]3F)cc21 [Example 351, (R,E)-N—((3R,4S)-1-(2-((4-((R)-2,6-dioxopiperidin-3-yl)-3,5-difluorophenyl)amino)ethyl)-3-fluoropiperidin-4-yl)-N,1^1,2^6,7-tetramethyl-3-oxo-5^2,5^3-dihydro-1^1H,5^1H-11-oxa-4-aza-5(2,1)-benzo[d]imidazola-2(2,4)-pyridina-1(4,5)-pyrazolacycloundecaphane-5^6-carboxamide] | 83.91%
13 | 501 pM | 590 pM | 89.3 | – | Cc1cc2cc(n1)-c1cnn(C)c1OCCC[C@@H](C)CN1/C(=N/C2=O)Nc2ccc(N3CC(C(=O)N4CCN(c5cc(F)c([C@H]6CCC(=O)NC6=O)c(F)c5)CC4)C3)cc21 [Example 354, (R)-3-(2,6-difluoro-4-(4-(1-((R,E)-1^1,2^6,7-trimethyl-3-oxo-5^2,5^3-dihydro-1^1H,5^1H-11-oxa-4-aza-5(2,1)-benzo[d]imidazola-2(2,4)-pyridina-1(4,5)-pyrazolacycloundecaphane-5^6-yl)azetidine-3-carbonyl)piperazin-1-yl)phenyl)piperidine-2,6-dione] | 72.74%
